For assay [1], the target named is T1, DrOTOP1 E384A (Danio rerio, UniProt Q7ZWK8, E384A).
T1 construct: A previously generated codon-optimized full-length DrOTOP1[8]; (UniProt: Q7ZWK8) construct; expressed in transfected cells; host or cells: HEK-293 (CRL-1573, ATCC)
T1 sequence (Q7ZWK8 1-586 E384A): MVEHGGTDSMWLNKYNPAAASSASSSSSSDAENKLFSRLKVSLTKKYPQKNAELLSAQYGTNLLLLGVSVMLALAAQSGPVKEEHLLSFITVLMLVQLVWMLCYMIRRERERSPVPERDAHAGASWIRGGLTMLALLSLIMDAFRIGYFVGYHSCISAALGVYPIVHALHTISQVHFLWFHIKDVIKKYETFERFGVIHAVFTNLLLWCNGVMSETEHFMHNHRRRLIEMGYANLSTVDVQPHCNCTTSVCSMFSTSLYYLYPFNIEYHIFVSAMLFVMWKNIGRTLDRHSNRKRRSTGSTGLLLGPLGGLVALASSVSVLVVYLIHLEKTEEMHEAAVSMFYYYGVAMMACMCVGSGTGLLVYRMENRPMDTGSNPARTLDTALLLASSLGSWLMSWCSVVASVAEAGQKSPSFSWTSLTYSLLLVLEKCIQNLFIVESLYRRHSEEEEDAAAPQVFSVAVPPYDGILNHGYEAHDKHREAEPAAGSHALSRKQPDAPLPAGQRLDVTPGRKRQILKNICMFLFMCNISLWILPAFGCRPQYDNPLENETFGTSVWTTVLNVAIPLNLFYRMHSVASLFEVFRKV
In words: Whole-cell patch-clamp, inhibition of acid-evoked currents, DrOTOP1 E384A (central site). The class given is cell-based, zebrafish (Danio rerio). The text has this:
(§1) To functionally test the significance of the two binding sites identified by cryo-EM, we generated point mutations of DrOTOP1 using the binding poses and conformational changes observed in DrOTOP1_C2.2 to guide our mutations. As per the binding pose that best fits our cryo-EM density, C2.2 forms the following interactions in the outer site: hydrophobic packing against many non-polar residues W126, G130, M133, L134, F271, F570, and M573, and π-stacking with W532 (Fig. 5A). In addition, C2.2 could potentially form H-bonds with E267, if the sidechain is protonated or a water bridge is present, and with H574 if it moves closer (Fig. 5A). Likewise, C2.36 presents a heterocyclic nitrogen that can potentially form a H-bond with E267, similarly, provided a protonation or water bridge is present (Fig. 5B). In addition, C2.36 forms a T-shaped π-stacking interaction with H574, whose sidechain has rotated 90 degrees (compared to DrOTOP1_apo), presumably to accommodate the interaction (Fig. 5B). Considering other inhibitors discovered from the second round of screening, many contain functional groups like the carbonyl groups of Group 1 molecules and the heterocyclic nitrogen atoms of Group 2 molecules (Supplementary Fig. 3E), that can potentially form similar H-bonds with E267 as C2.2 and C2.36, assuming the binding modes are similar. In the central site, C2.2 binds with the following interactions: hydrophobic packing with residues V201, F271, A274, V278, and A388, π-stacking with F277, and H-bonding with E384 (Fig. 5C).
We next tested mutations of the central site (L205W, A274W, F277A, E384A L385W, A388W). V201W and S389W, two additional central site mutations, were excluded from the study due to complete loss of channel activity. Mutation of E384 to alanine is expected to disrupt potential hydrogen bonding with C2.2. Of note, E384 is one of the few charged residues in the central pocket and could form a salt bridge with K281, that could also be affected by the mutation. Additionally, in our DrOTOP1_C2.2 structure, we observed that F277 underwent a substantial rearrangement, likely to avoid steric clash and accommodate C2.2 binding. Thus, we introduced the F277A mutation to test if removing this steric clash would enhance C2.2 inhibition.
HEK-293 cells (CRL-1573, ATCC) were cultured in DMEM (Thermofisher 11995073) containing 10% fetal bovine serum (Life Technology 16000044) and Penicillin-Streptomycin (100 I.U./mL) and (100 µg/mL), respectively. Cells were transfected with WT DrOTOP1 or mutant DrOTOP1 channels in 35 mm petri dishes, with ~ 500 ng DNA and 2 μL TransIT-LT1 transfection reagent (Mirus Bio Corporation, Cat # MIR2300) following the manufacturer’s protocol. All constructs were subcloned into a pcDNA3.1 vector that adds an N-terminal fusion tag consisting of an octahistidine tag followed by eGFP, a Gly-Thr-Gly-Thr linker and a 3C protease cleavage site ([…]) followed by WT DrOTOP1, WT mOTOP1, WT hOTOP1, or mutated DrOTOP1. Point mutations were generated via In-Fusion Cloning (Takara) using single-stranded DNA primers generated through IDT and sequence confirmed by Sanger sequencing (GeneWiz).
Whole-cell patch-clamp recording was performed as previously described[6],[22],[25]. Recordings were made with an Axopatch 200B amplifier, digitized with a Digidata 1322a 16-bit data acquisition system, acquired with pClamp 8.2 and analyzed with Clampfit 10 (Molecular Devices). Recordings were sampled at 5 kHz and filtered at 1 kHz. Patch Pipettes with resistance of […] were fabricated from borosilicate glass, and only recordings with a giga-Ohm seal were used in analysis. Membrane potential was held at −80 mV for the duration of recordings. At the beginning of recordings and between, cells were washed with Tyrode’s solution (see below). […]

In assay [2] the target is T2, DrOTOP1 F277A (Danio rerio, UniProt Q7ZWK8, F277A).
T2 construct: A previously generated codon-optimized full-length DrOTOP1[8]; (UniProt: Q7ZWK8) construct; expressed in transfected cells; host or cells: HEK-293 (CRL-1573, ATCC)
T2 sequence (Q7ZWK8 1-586 F277A): T1 sequence (Q7ZWK8 1-586 E384A) with F277A, A384E
In words: Whole-cell patch-clamp, inhibition of acid-evoked currents, DrOTOP1 F277A. The class given is cell-based, zebrafish (Danio rerio). The note with it: single cells or mean.
Excerpt: as §1, with “Considering other inhibitors discovered from the second round of screening, many contain functional groups like the carbonyl groups of Group 1 molecules and the heterocyclic nitrogen atoms of Group 2 molecules (Supplementary Fig. 3E), that can potentially form similar H-bonds with E267 as C2.2 and C2.36, assuming the binding modes are similar. In the central site, C2.2 binds with the following interactions: hydrophobic packing with residues V201, F271, A274, V278, and A388, π-stacking with F277, and H-bonding with E384 (Fig. 5C).” left out
Whole-cell patch-clamp recording was performed as previously described[6],[22],[25]. Recordings were made with an Axopatch 200B amplifier, digitized with a Digidata 1322a 16-bit data acquisition system, acquired with pClamp 8.2 and analyzed with Clampfit 10 (Molecular Devices). […]

The values below come from PMC12549899 (Nature Communications, 2025).

Numbering of substitutions follows the chain as printed.

In turn, `C=C(C)COc1ccccc1NC(=O)c1nc[nH]c1C` [C2.2] came in with a Hill coefficient in assay [1] of 1.184. Also, 3 µM produced 10.2% inhibition in assay [1] (3 µM, single cells). In addition, the inhibition at 10 µM in assay [1] (10 µM, single cells or mean) was ~40%; in assay [2] it was 76.2%. The compound also gave an inhibition at 30 µM in assay [1] (30 µM, single cells) of 70.7%. Further, the inhibition at 100 µM in assay [1] (100 µM, single cells) came out at 96.3%. Also, the inhibition at 300 µM in assay [1] (300 µM, single cells) is 97.3%. Half-maximal inhibition in assay [1] (pH 5.5) (IC50) was put at 15.3 µM.

Broadly, the Hill coefficient is the slope factor of the fitted curve. As a reminder, the inhibition is the drop in the measured response relative to a control, in per cent. Read a low inhibition as little suppression. As a reminder, the IC50 is the concentration that inhibits the measured activity by half. High values mean lower potency, low ones higher potency.
